Ki data for 1 compound are collected here from ChEMBL document CHEMBL5726728, “T-type calcium channel modulator and uses thereof” (2019).

One assay deals with Cannabinoid receptor 2 (Homo sapiens, UniProt P34972). The assay can be described thus: (§1) As used herein, the term T-type calcium channel blocker refers to a compound that can modulate, in particular inhibit or reduce activation of T-type calcium channels. […] The term about refers to ±20%, typically ±10%, and often ±5% of the numeric value.
Chain of Cannabinoid receptor 2 (P34972 whole entry): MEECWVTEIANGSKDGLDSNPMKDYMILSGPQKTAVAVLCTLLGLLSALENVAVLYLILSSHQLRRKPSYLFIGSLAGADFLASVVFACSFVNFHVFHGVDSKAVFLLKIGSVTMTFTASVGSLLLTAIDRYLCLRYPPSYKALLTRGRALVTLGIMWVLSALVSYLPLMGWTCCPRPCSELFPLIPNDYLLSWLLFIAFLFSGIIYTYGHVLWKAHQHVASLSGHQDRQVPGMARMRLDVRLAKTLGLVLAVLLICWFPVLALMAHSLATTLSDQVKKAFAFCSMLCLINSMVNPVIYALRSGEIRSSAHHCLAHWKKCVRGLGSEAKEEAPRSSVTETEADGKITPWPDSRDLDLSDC
For the next assay, the target named is Cannabinoid receptor 1 (Rattus norvegicus, UniProt P20272). Described as §1.
Chain of Cannabinoid receptor 1 (P20272 whole entry): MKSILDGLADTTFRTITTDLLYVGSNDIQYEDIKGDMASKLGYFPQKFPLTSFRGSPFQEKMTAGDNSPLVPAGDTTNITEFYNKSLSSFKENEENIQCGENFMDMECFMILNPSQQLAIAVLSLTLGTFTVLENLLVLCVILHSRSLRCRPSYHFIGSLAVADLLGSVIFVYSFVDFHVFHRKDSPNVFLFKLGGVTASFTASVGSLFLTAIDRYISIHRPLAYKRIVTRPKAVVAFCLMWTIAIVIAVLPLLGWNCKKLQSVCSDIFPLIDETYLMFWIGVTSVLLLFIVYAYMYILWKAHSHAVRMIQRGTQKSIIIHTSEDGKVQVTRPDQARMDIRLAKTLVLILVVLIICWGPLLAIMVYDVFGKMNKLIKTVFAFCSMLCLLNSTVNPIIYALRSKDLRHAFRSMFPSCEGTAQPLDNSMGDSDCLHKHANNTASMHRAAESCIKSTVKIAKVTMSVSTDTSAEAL

The structures appear in SMILES notation.

As a reminder, the Ki is a dissociation constant, usually derived from enzyme kinetics or from competition with a known ligand. `CCCCCn1c2ccccc2c2cc(C(=O)N3CCN(CC(=O)NC(C)(C)C)CC3)ccc21`: the values for the Ki at Cannabinoid receptor 2 and on Cannabinoid receptor 1 were 1970 nM and 15 nM, respectively.
